Data from article PMC7177638 (International Journal of Molecular Sciences, 2020).

What was measured:
[1] = Cyclic voltammetry, cathodic reduction potential in aqueous solution; type: physicochemical; conditions: values normalized vs. SCE; phosphate buffer pH 7.4, 5 mM NaCl, 5·10^−4 M complex, scan rate 0.020 V s^−1
Protocol: The electrochemical characterization of compounds 1–6, performed by using cyclic voltammetry (CV), was carried out with the aim of determining the cathodic reduction potentials in aqueous solution (Ep^c).
Cyclic voltammetry (CV) measurements were carried out with a potentiostat CHI 1230B (CH Instruments, Inc., Austin, TX, USA) in a standard three-electrode electrochemical cell. The working electrode was a glassy carbon (GC) electrode, the reference electrode was a KCl-saturated Ag/AgCl and the counter was a Pt sheet. The GC electrode was carefully polished with alumina powder, then rinsed with distilled water and dried, to obtain a reproducible surface for all the experiments. All the measurements, conducted in triplicate, were carried out in buffered aqueous solutions containing the Pt(IV) compound at a concentration of 5·10^−4 M in 10 mL phosphate buffer (PB, pH = 7.4, I = 0.1) and 5 mM NaCl as supporting electrolyte. A blank solution (without Pt(IV) complex) was also tested. All the peak potentials were measured with a scan rate of 0.020 V s^−1; the initial potential was chosen equal to the open-circuit potential and the scan direction was negative. All the CV plots were acquired after an equilibration time of 2 min in order to make the GC surface reproducible.

A431 cells = test: Cellular accumulation of Pt (GF-AAS); type: cell-based, human; conditions: 24 h, 0.5 μM
Protocol: It is clearly recognized that the antitumor activity of platinum-based anticancer drugs depends on the ability of compounds to accumulate into cancer cells and to bind to nuclear DNA, thus inducing transcription inhibition and cell death. Therefore, we investigated the cellular uptake as well as the DNA binding ability of 1–6 in human A431cervical cancer cells. Cells were treated for 24 h with 0.5 μM of 1–6 or CDDP and the total cellular and DNA-bound platinum contents were quantified using GF–AAS analysis. The results, expressed as ng of metal per 10^6 cells, in the case of cellular uptake (A) and as pg of metal per μg of DNA, in the case of DNA-bound platinum (B) are summarized in Figure 9.
A431 cells (2·10^6) were seeded in 75 cm^2 flasks in growth medium (20 mL). After 24 h, the medium was replaced and the cells incubated for 24 h in the presence of the tested complexes.
Cells monolayers were washed twice with cold phosphate-buffered saline (PBS), harvested, and counted. Samples were subjected to three freeze–thaw cycles at −80 °C, and then vigorously vortexed. The samples were treated with highly pure nitric acid (1 mL; Pt ≤ 0.01 mg kg^−1, Trace-SELECT Ultra, Sigma Chemical Co.) and transferred into a microwave Teflon vessel. Subsequently, samples were submitted to standard mineralization procedures. Samples were analyzed for platinum by using a Varian AA Duo graphite furnace atomic absorption spectrometer (Varian, Palo Alto, CA; USA) at a wavelength of […]. The calibration curve was obtained using known concentrations of standard solutions purchased from Sigma Chemical Co.

[2] = tested on: panel of human cancer cell lines (PSN-1, HCT-15, LoVo, A431, 2008); test: MTT cytotoxicity, average over the panel of human cancer cell lines; type: cell-based; conditions: 72 h
Protocol: The in vitro cytotoxic activities of compounds 1–6 were assayed on a panel of human cancer cell lines containing examples of pancreatic (PSN-1), colon (HCT-15 and LoVo), cervical (A431), and ovarian (2008) cancers. Cisplatin and oxaliplatin were used as reference compounds and were tested under the same experimental conditions.
[17, 30] Thus, the pharmacological activity decreases in the order 3 >> 1 ≈ 2 ≈ 4 > 5 > 6.
The growth inhibitory effect toward the tumor cell lines was evaluated by the MTT test. Briefly, 3-8·10^3 cells/well, depending upon the growth characteristics of the cell lines, were seeded in 96-well microplates in growth medium (100 µL) and then incubated at 37 °C in a 5% carbon dioxide atmosphere. After 24 h, the medium was removed and replaced with a fresh one containing the compound to be tested at the appropriate concentration. Triplicate cultures were established for each treatment. After 72 h, each well was treated with 10 µL of a 5 mg·mL^−1 MTT (3-(4,5-dimethylthiazol-2-yl)-2,5-diphenyltetrazolium bromide) saline solution and, after 5 h of incubation, 100 µL of a sodium dodecylsulfate (SDS) solution in HCl 0.01 M were added. Following an overnight incubation, the inhibition of cell growth induced by the tested complexes was evaluated by measuring the absorbance of each well at 570 nm using a Bio-Rad 680 microplate reader (Bio-Rad Laboratories S.r.l., Segrate (MI), Italy).

[3] = Stability in solution followed by 1H-NMR (solvent-assisted photoreduction); type: physicochemical; conditions: DMSO-d6, room temperature, not shielded from light
Excerpt: (5.4–6.5 ppm). Most likely, compound 4 underwent a solvent-assisted reduction process favored by light, as previously observed for similar compounds such as cis,trans,cis-[PtCl2(OH)2(cis-1,4-DACH)] [19, 20]. […] This reduction/solvation could also be observed in other solvents, such as D2O and CD3OD.
As for compound 4, the reduction is probably fostered by the presence of axial chlorido ligand(s).
The ^13C NMR signals are influenced by the asymmetry of the complex with respect to the equatorial plane with two peaks at 125.4 and 125.2 ppm for the vinylic carbons, two signals at 60.2 and 59.3 ppm for the methynic carbons, and two signals at 33.1 and 32.6 ppm for the methylenic carbons (Figure S10).

Row | Compound | Cathodic reduction potential Ep^c [1] | cellular uptake (cellular internalization of Pt), in words (A431 cells) | times more cytotoxic than the other Pt(IV) compounds of the series [2] | times more cytotoxic than the other Pt(IV) compounds of the series ([2]; listed as bis-benzoate derivative) | IC50 ([2]; mean over the cell line panel) | stability in solution (reduction to Pt(II) / solvation) [3]
1 | NC1CC=CCC1N.O=C([O-])C(=O)[O-].O=C([O-])c1ccccc1.O=C([O-])c1ccccc1.[Pt+4] (mixture of isomers) [Complex 3, cis,trans,cis-[Pt(OXA)(BzO)2(DACHEX)]] | −0.99 V | the most effective in entering cancer cells | about five times more active | 5–8 | 260 nM | –
2 | CC(=O)[O][Pt]1([Cl])[O]C(=O)C(=O)[O]1.NC1CC=CCC1N (racemic) [Complex 5, cis,trans,cis-[Pt(OXA)(AcO)Cl(DACHEX)]] | −0.82 V | the worst in crossing the cell plasmalemma | – | – | – | shows a photo-assisted reduction accompanied by solvation
3 | NC1CC=CCC1N.O=C1[O][Pt]([OH])([Cl])[O]C1=O (racemic) [Complex 6, cis,trans,cis-[Pt(OXA)(OH)Cl(DACHEX)]] | −0.48 V | the worst in crossing the cell plasmalemma | – | – | – | underwent reduction followed by solvation
